The text below walks through data of US7507395B2, “Methods of using fluorescent pH indicators for intracellular assays” (MDS Analytical Technologies (US) Inc., priority 2001, dated 2009).

Data set [1] deals with M1CHO cells. Kind of data set: Pirenzapine inhibition of carbachol-mediated stimulation of M1CHO cells (intracellular pH). Type of data set: cell-based. The conditions noted are these: pirenzapine 0.1, 0.3, 1.0 μM, carbachol 1 μM. On the procedure:
M1CHO Cells, 50,000, in 40 μL are seeded and incubated at 37° C., 5% CO2 overnight in a 96-well microplate. To each well is added 10 μL of the Loading Buffer (as described in Examples 19 and 20) including a fluorescein diacetate compound of the invention and a nonfluorescent quenching dye. After 45 min at room temperature 5 μL of 220 mM ammonium chloride, in combination with pirenzapine to a final concentration of 0.0 μM, 1.0 μM, 0.3 μM, and 0.1 μM. […] A drop in fluorescence signal is observed at time=10 to 20 seconds, corresponding to a drop in signal due to the increased acidification of the cells. The low pH stimulates the Na^+/H^+ exchange pump.

A further data set has as its system MCF7/ADR cells. The experiment in a line: Drug Resistance Assay: insulin on MCF7/ADR cells (intracellular pH). Type of data set: cell-based. Conditions: 0.003-150 nM insulin, after NH4Cl acid load, FIG. 6. On the procedure:
MCF7/ADR cells are MCF7 mammary gland adenocarcinoma selected for adriamycin resistance. These cells are propagated and maintained in DMEM medium containing 5% FCS, 1× Pen/Strep, 2 mM L-glutamine, and non-essential amino acids. The assay is performed according to the following procedure.
The cells are then incubated in a 37° C. CO2 incubator overnight.
A 25 mM stock solution of a Masking Compound is prepared by dissolving an appropriate amount of the desired Masking Compound in 10 mL water.
The cell plate is removed from the incubator, and all wells are washed once with 1× Assay Buffer, leaving 40 μL of buffer in each well. The cell plate is then incubated at 37° C. for at least 4 hours.
A stock solution of insulin is prepared by dissolving 1 mg of insulin in 1 mL of 1 M HCl to a concentration of 174 μM. A 5 μL aliquot of the insulin stock solution is diluted with 4,574 μL H+H/2 mM probenecid/0.1% BSA solution (190 nM stock, 150 nM final concentration). Three-fold dilutions are performed 11 times to obtain final concentrations of 0.003, 0.008, 0.02, 0.07, 0.2, 0.6, 1.9, 5.6, 17, 50, and 150 nM, respectively.

For data set [2] the following is noted: background statement; cited from earlier work.
For data set [3] the following is noted: pH buffer series, final concentration 1.0 μM, Gemini XS fluorescence plate reader.
Description: The excitation and emission spectra of the aqueous solutions are obtained with a Gemini XS fluorescence plate reader (Molecular Devices Corporation; Sunnyvale, Calif.).
Data set [4] has as its system M1CHO cells. The experiment in a line: Effect of increasing concentrations of carbachol on M1CHO cells (intracellular pH). The class given is cell-based. Conditions: carbachol 6.7 μM or 0 μM, after ammonium chloride. On the procedure: M1CHO cells, 50,000, in 40 μL were seeded and incubated at 37° C., 5% CO2 overnight in a 96-well microplate. To each well is added 10 μL of the Loading Buffer (as described in Examples 19 and 20) including a fluorescein diacetate compound of the invention and a nonfluorescent quenching dye. After 45 min at room temperature, 5 μL of 220 mM ammonium chloride is added. […] A drop is fluorescence signal is observed at time=10 to 20 seconds due to the increased acidification of the cells. The low pH stimulates the Na^+/H^+ exchange pump.
For Compounds 19 and 20, emission is monitored at 550 nm and excitation is monitored at 505 and 470 nm.

Another data set relates to CHO/CCR5/Galphaqi5 cells. Kind of data set: Effect of increasing concentrations of RANTES on CHO/CCR5/Galphaqi5 cells (intracellular pH). The conditions noted are these: RANTES 2-500 nM, after ammonium chloride. The class given is cell-based. On the procedure:
CHO/CCR5/Galphaqi5 cells, 80,000, in 40 μL are seeded and incubated at 37° C., 5% CO2 overnight in a 96-well microplate. To each well is added 10 μL of Loading Buffer (as described in Examples 19 and 20) including a fluorescein diacetate compound of the invention and a nonfluorescent quenching dye. After 45 min at room temperature 5 μL of 220 mM ammonium chloride is added. Following an additional 15 min incubation at room temperature, 200 μL of buffer containing RANTES to a final concentration of 500, 167, 56, 19, 6, 2, or 0 nM is added using the fluidics module on a fluorescence microplate reader (10 seconds after the start of the experiment) and fluorescence readings are recorded. A drop in fluorescence signal is observed at time=10 to 20 seconds, corresponding to an increased acidification of the cells. The low pH stimulates the Na+/H+ exchange pump.

Consider `CN1CCN(CC(=O)N2c3ccccc3C(=O)Nc3cccnc32)CC1` [Pirenzapine], for which, in the data set with M1CHO cells [1], the “effect on carbachol-mediated stimulation” value is “inhibits the carbachol-mediated stimulation”.
For the molecule insulin, the “activity of the Na+/H+ exchange pump / alkalinization of the cells” value in the data set on MCF7/ADR cells is “increases the activity of the pump, resulting in a greater alkalinization of the cells in a dose-dependent manner”.
“2′,7′-bis-(2-carboxyethyl)-5-(and-6)-carboxyfluorescein [BCECF]”: the pKa (in general, the negative logarithm of the acid dissociation constant) in data set [2] was 7.0.
Consider “2′,7′-diethyl-5-(or 6-)carboxyfluorescein [Compound 4]”, for which the “calculated pKa (acid dissociation constant)” value in data set [3] is listed as 6.96.
As for `C[N+](C)(C)CCOC(N)=O` [carbachol], the “activity of the Na+/H+ exchange pump / alkalinization of the cells” value with M1CHO cells [4] is reported as “increases the activity of the pump, resulting in a greater alkalinization of the cells in a dose:dependent manner”.

B1: RANTES (protein, UniProt P13501 24-91, looked up)
C-C motif chemokine 5: SPYSSDTTPCCFAYIARPLPRAHIKEYFYTSGKCSNPAVVFVTRKNRQVCANPEKKWVREYINSLEMS
notes: RANTES, added to CHO/CCR5/Galphaqi5 cells at increasing concentrations
For B1, the “activity of the Na+/H+ exchange pump / alkalinization of the cells” value in the data set on CHO/CCR5/Galphaqi5 cells is given as “increases the activity of the pump, resulting in a greater alkalinization of the cells in a dose:dependent manner”.
